Measurements reported in patent US5552552A, “Crystalline salts of optically active aminocoumaran derivatives, their production and use” (Takeda Chemical Industries, Ltd., priority 1992, dated 1996).
Counter-ions that a name gives are not always drawn. Blank lines part the entries; values can stand above or below the molecule they belong to.

Experiments:
[1] = tested on: behavioral change induced by spinal intrathecal injection of FeCl2 (ferrous chloride); assay: Change of behavior induced by spinal intrathecal injection of FeCl2 in mice; format: in vivo, male Slc:ICR mice (printed "SIc: IcR mice"); details: 25 mg/kg oral; for Mean Score, 25 mg/kg Administered: behavior observed 15 min to 1 h after intrathecal 50 mM FeCl2, 5 μl/mouse, 10 mice per group, score 0 (normal) to 5 (death); for Percent Suppression (%): calculated from the mean behavioral scores, FeCl2 intrathecal, mice
From the text: Effect on drugs on the change of behavior induced by spinal in intrathecal injection of FeCl2 in mice.
Male SIc: IcR mice (5 weeks) (10 mice per group) were used. […] The following criteria were used to score behavioral changes.
1: Frequent bites to lower limbs and lower abdomen.
2: One of the following three responses is seen: a) Violent bites to lower half of body, with occasionally rolling b) Hypersensitive aggressive behavior in response to external stimulation […]
4: Tonic convulsion, or unilateral or bilateral limb paralysis […]
Percent inhibitions were calculated from the scores obtained as above (percent inhibition=[(5-score)/5]×100). The subject compound salt was orally administered during the 30-minute period following administration of ferrous chloride.

[2] = Stability / hygroscopicity (no method); format: physicochemical; details: in words; derivative (B), racemate; no data
[3] = in words; free form (racemate), as described in EP-A-0483772; cited from earlier work

SMILES: Cc1c(C)c2c(c(C)c1N)C[C@](C)(CN1CCC(c3ccccc3)CC1)O2 [Example 4, (R)--(-)-5-amino-2,4,6,7-tetramethyl-2-(4-phenylpiperidinomethyl)-2,3-dihydrobenzo [b]furan dihydrochloride]
Mean Score, 25 mg/kg Administered [1]: 1.3 | Percent Suppression (%) [1]: 72.3%

SMILES: Cc1c(C)c2c(c(C)c1N)C[C@@](C)(CN1CCC(c3ccccc3)CC1)O2 [Example 3, (S)--(+)-5-amino-2,4,6,7-tetramethyl-2-(4-phenylpiperidinomethyl)-2,3-dihydrobenzo [b]furan dihydrochloride]
Mean Score, 25 mg/kg Administered [1]: 0.2 | Percent Suppression (%) [1]: 96%

hygroscopicity and stability [2]: hygroscopic and hence unstable
SMILES: Cc1c(C)c2c(c(C)c1N)CC(C)(CN1CCC(c3ccccc3)CC1)O2 (racemic) [Derivative (B), 5-amino-2,4,6,7-tetramethyl-2-(4-phenylpiperidinomethyl)-2,3-dihydrobenzo[b]furan]
water solubility of the free form [3]: sparingly water-soluble
